Source: patent US10414763B2 (CANCER RESEARCH TECHNOLOGY LIMITED, priority 2014, dated 2019)

biological target: T1, full-length human PKCι (Homo sapiens, UniProt P41743); experiment: PKCι IC50 IMAP fluorescence polarisation assay, full-length enzyme, 150 μM ATP; assay type: biochemical; settings: read-out: IC50 in IMAP assay against full length PKCi at 150 μM ATP
T1 construct: Recombinant, full-length human PKCι expressed in Sf21 insect cells is also commercially available; purchased EMD Millipore; host or cells: Sf21 insect cells (baculovirus)
T1 sequence (P41743 1-596): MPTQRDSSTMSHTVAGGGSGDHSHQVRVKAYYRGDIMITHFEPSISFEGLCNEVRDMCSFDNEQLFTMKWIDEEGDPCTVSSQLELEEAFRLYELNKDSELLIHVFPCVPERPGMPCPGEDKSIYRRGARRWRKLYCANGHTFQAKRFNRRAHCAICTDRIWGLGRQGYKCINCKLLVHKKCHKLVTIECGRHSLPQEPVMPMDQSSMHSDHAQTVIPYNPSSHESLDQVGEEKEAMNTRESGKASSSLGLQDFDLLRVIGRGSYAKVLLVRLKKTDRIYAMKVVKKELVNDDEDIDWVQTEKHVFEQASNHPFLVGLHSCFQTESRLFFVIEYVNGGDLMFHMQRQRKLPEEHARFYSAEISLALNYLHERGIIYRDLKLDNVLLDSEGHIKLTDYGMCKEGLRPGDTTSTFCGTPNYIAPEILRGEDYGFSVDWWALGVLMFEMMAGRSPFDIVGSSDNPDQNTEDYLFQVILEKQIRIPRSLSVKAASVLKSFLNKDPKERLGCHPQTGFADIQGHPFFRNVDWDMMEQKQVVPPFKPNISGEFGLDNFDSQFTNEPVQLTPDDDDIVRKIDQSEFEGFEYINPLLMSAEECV
From the text: Assays are based on the ability of PKCι to phosphorylate a commercially available peptide substrate in vitro. The peptide substrate is FAM-PKCε pseudopeptide derived peptide, and comprises the amino acid sequence 5FAM-ERMRPRKRQGSVRRRV-NH2. Recombinant, full-length human PKCι expressed in Sf21 insect cells is also commercially available. Recombinant, kinase-domain human PKCι is expressed and purified in-house.
The procedure below explains how dose response curves for inhibitors of PKCι are obtained. The screen described is for a 384 well format but the assay can be adapted to 1536 or other formats as required.
Compounds to be tested are dissolved in 100% DMSO. Compounds are diluted as required to give a final concentration of 4% DMSO (v/v) in the assay. 1 μl is plated into 384 well black low-binding flat bottomed assay plates which are used immediately. Dilutions and additions of compound to assay plates are carried out using Matrix WellMate® and Matrix PlateMate® Plus liquid handling systems.
On the day of the screen PKCι/substrate working solution, and ATP working solution, are prepared in buffer containing 20 mM tris-HCl pH7.5, 10 mM MgCl2, 0.01% Triton X100, 250 μM EGTA and 1 mM DTT. The final concentration of PKCι used varies depending on the batch of protein but is typically 15 pM. The final concentration of peptide substrate in the assay is 100 nM. ATP is used at a final concentration of 150 μM or 25 μM in the assays containing full-length or kinase-domain PKCι respectively, which corresponds to five times or equal to the KM^APP for ATP for each enzyme, respectively. The final buffer concentration in the assay is 18 mM tris-HCl pH7.5, 9 mM MgCl2, 0.009% Triton X100, 225 μM EGTA and 0.9 mM DTT. Relevant controls are included, namely no compound and no enzyme. 5 μl PKCι/substrate working solution at 30 pM and 200 nM, respectively, is added to the wells, followed by 4 μl ATP working solution at 375 μM or 62.5 μM for full-length or kinase-domain PKCι respectively, using a 16 channel Matrix pipette. The reaction is allowed to incubate for 60 minutes at room temperature, before the reaction is stopped and developed by the addition of 20 μl IMAP™ development reagent (Molecular Devices). IMAP development reagent consists of 0.25% (v/v) IMAP progressive binding reagent, 17% (v/v) IMAP progressive binding buffer A and 3% (v/v) IMAP progressive binding buffer B. The plates are then incubated for 2 hours at room temperature before being read using an appropriate plate reader, for example a Molecular Devices HT Analyst or a BMG Pherastar. Plates are read using a fluorescence polarisation protocol with excitation at 485 nm and emission at 530 nm, and dichroic mirror at 505 nm.
Percentage inhibition values are calculated from fluorescence polarisation values, using the no compound and no enzyme control values as 0% and 100% inhibition, respectively. IC50 determination is performed with ExcelFit software (IDBS) using curve fit 205. Z′ factors are determined for each plate tested and are all above 0.5.
Alternatively, compounds were tested for their ability to inhibit the kinase activity of recombinant human baculovirus-expressed PKCiota using the immobilized metal-ion affinity particle (IMAP®) fluorescence polarization detection system (Molecular Devices, Sunnyvale, Calif.). PKCiota/IMAP® substrate mixture (2×) was prepared in 1×IMAP assay buffer (Molecular Devices) containing 1 mM DTT so that the final assay concentrations were 15 pM PKCiota (EMD Millipore, Billerica, Mass.) and 100 nM 5-fluorescein-amidite (FAM)-PKC ? -pseudosubstrate (5-FAM-ERMRPRKRQGSVRRRV-NH2) (Molecular Devices). The 2× working solution was added at 5 μL/well into a 384-well black, non-binding, flat bottom assay plate (Corning, Corning, N.Y.). […]

IC50 [nM] | Structure (SMILES)
< 100 | FC(F)(F)c1cc2c(-c3nc(N4CCC[C@H]5CNC[C@H]54)c4c(C5CC5)cncc4n3)ccnc2[nH]1 (racemic) [Example 8, (±)-5-Cyclopropyl-4-(4,7-cis)-octahydro-pyrrolo[3,4-b]pvridin-1-yl-2-(2-trifluoromethyl-1H-pyrrolo[2,3-b]pyridin-4-yl)-pyrido[3,4-d]pyrimidine]
< 100 | FC(F)(F)c1cc2c(-c3nc(N4CC[C@H]5NCC[C@H]54)c4c(C5CC5)cncc4n3)ccnc2[nH]1 (racemic) [Example 19, (±)-5-Cyclopropyl-4-(3,6-cis)-hexahydro-pyrrolo[3,2-b]pyrrol-1-yl-2-(2-trifluoromethyl-1H-pyrrolo[2,3-b]pyridin-4-yl)-pyrido[3,4-d]pyrimidine]
< 100 | Clc1ccccc1-c1cc2c(-c3nc(N4CC[C@@H]5CNCC[C@@H]54)c4c(C5CC5)cncc4n3)ccnc2[nH]1 (racemic) [Example 27, (±)-2-[2-(2-Chloro-phenyl)-1H-pyrrolo[2,3-b]pyridin-4-yl]-5-cyclopropyl-4-(3aR,7aS)-octahydro-pyrrolo[3,2-c]pyridin-1-yl-pyrido[3,4-d]pyrimidine]
< 100 | CC(C)(C)c1nc(-c2cc3c(-c4nc(N5CC[C@H]6NCC[C@H]65)c5c(C6CC6)cncc5n4)ccnc3[nH]2)cs1 (racemic) [Example 34, (±)-2-[2-(2-tert-Butyl-thiazol-4-yl)-1H-pyrrolo[2,3-b]pyridin-4-yl]-5-cyclopropyl-4-(3,6-cis)-hexahydro-pyrrolo[3,2-b]pyrrol-1-yl-pyrido[3,4-d]pyrimidine]
< 100 | FC(F)(F)c1cc2c(-c3nc(N4CC[C@H]5NCC[C@H]54)c4c(C5CCC5)cncc4n3)ccnc2[nH]1 (racemic) [Example 54, (±)-5-Cyclobutyl-4-(3,6-cis)-hexahydro-pyrrolo[3,2-b]pyrrol-1-yl-2-(2-trifluoromethyl-1H-pyrrolo[2,3-b]pyridin-4-yl)-pyrido[3,4-d]pyrimidine]
< 100 | Fc1cccnc1-c1cc2c(-c3nc(N4CC[C@H]5NCC[C@H]54)c4c(C5CC5)cncc4n3)ccnc2[nH]1 (racemic) [Example 56, (±)-5-Cyclopropyl-2-[2-(3-fluoro-pyridin-2-yl)-1H-pyrrolo[2,3-b]pyridin-4-yl]-4-(3,6- cis)-hexahydro-pyrrolo[3,2-b]pyrrol-1-yl-pyrido[3,4-d]pyrimidine]
< 100 | Fc1cccnc1-c1cc2c(-c3nc(N4CC[C@H]5NCC[C@H]54)c4c(C5CCC5)cncc4n3)ccnc2[nH]1 (racemic) [Example 57, (±)-5-Cyclobutyl-2-[2-(3-fluoro-pyridin-2-yl)-1H-pyrrolo[2,3-b]pyridin-4-yl]-4-(3,6- cis)-hexahydro-pyrrolo[3,2-b]pyrrol-1-yl-pyrido[3,4-d]pyrimidine]
< 100 | FC(F)(F)c1cc2c(-c3nc(N4CC[C@H]5NCCC[C@H]54)c4c(C5CC5)cncc4n3)ccnc2[nH]1 (racemic) [Example 63, (±)-5-Cyclopropyl-4-(3,7-cis)-octahydro-pyrrolo[3,2-b]pyridin-1-yl-2-(2-trifluoromethyl-1H-pyrrolo[2,3-b]pyridin-4-yl)-pyrido[3,4-d]pyrimidine]
< 100 | O[C@]12CCN(c3nc(-c4ccnc5[nH]c6ccccc6c45)nc4cncc(C5CCC5)c34)[C@H]1CCNC2 (racemic) [Example 76, (±)-(3aS,7aS)-1-[5-Cyclobutyl-2-(9H-pyrido[2,3-b]indol-4-yl)-pyrido[3,4-d]pyrimidin-4-yl]-octahydro-pyrrolo[3,2-c]pyridin-3a-ol]
< 100 | FC(F)(F)c1cc2c(-c3nc(N4CC[C@H]5NCCC[C@H]54)c4c(C5CCC5)cncc4n3)ccnc2[nH]1 (racemic) [Example 80, (±)-5-Cyclobutyl-4-(3,7-cis)-octahydro-pyrrolo[3,2-b]pyridin-1-yl-2-(2-trifluoromethyl-1H-pyrrolo[2,3-b]pyridin-4-yl)-pyrido[3,4-d]pyrimidine]
< 100 | FC(F)(F)c1cc2c(-c3nc(N4CCCC5NCCCC54)c4c(C5CCC5)cncc4n3)ccnc2[nH]1 (racemic) [Example 81, 5-Cyclobutyl-4-(octahydro-[1,5]naphthyridin-1-yl)-2-(2-trifluoromethyl-1H-pyrrolo[2,3-b]pyridin-4-yl)-pyrido[3,4-d]pyrimidine]
< 100 | Cc1cc2c(-c3nc(N4CC[C@H]5NCC[C@H]54)c4c(C5CC5)cncc4n3)ccnc2[nH]1 (racemic) [Example 82, (±)-5-Cyclopropyl-4-(3,6-cis)-hexahydro-pyrrolo[3,2-b]pyrrol-1-yl-2-(2-methyl-1H-pyrrolo[2,3-b]pyridin-4-yl)-pyrido[3,4-d]pyrimidine]
< 100 | Cc1cc2c(-c3nc(N4CC[C@H]5NCCC[C@H]54)c4c(C5CC5)cncc4n3)ccnc2[nH]1 (racemic) [Example 83, (±)-5-Cyclopropyl-2-(2-methyl-1H-pyrrolo[2,3-b]pyridin-4-yl)-4-(3,7-cis)-octahydro-pyrrolo [3,2-b]pyridin-1-yl-pyrido[3,4-d]pyrimidine]
< 100 | Cc1cc2c(-c3nc(N4CC[C@H]5NCC[C@H]54)c4c(C5CCC5)cncc4n3)ccnc2[nH]1 (racemic) [Example 84, (±)-5-Cyclobutyl-4-(3,6-cis)-hexahydro-pyrrolo[3,2-b]pyrrol-1-yl-2-(2-methyl-1H-pyrrolo[2,3-b]pyridin-4-yl)-pyrido[3,4-d]pyrimidine]
< 100 | Cc1cc2c(-c3nc(N4CC[C@H]5NCCC[C@H]54)c4c(C5CCC5)cncc4n3)ccnc2[nH]1 (racemic) [Example 85, (±)-5-Cyclobutyl-2-(2-methyl-1H-pyrrolo[2,3-b]pyridin-4-yl)-4-(3,7-cis)-octahydro-pyrrolo [3,2-b]pyridin-1-yl-pyrido[3,4-d]pyrimidine]
< 100 | O[C@]12CCN(c3nc(-c4ccnc5[nH]c(C(F)(F)F)cc45)nc4cncc(C5CC5)c34)[C@H]1CCNC2 (racemic) [Example 104, (±)-(3aS,7aS)-1-[5-Cyclopropyl-2-(2-trifluoromethyl-1H-pyrrolo[2,3-b]pyridin-4-yl)-pyrido[3,4-d]pyrimidin-4-yl]-octahydro-pyrrolo [3,2-c]pyridin-3a-ol]

Structure (SMILES) | IC50 [nM]
CN(c1nc(-c2ccnc3[nH]c4ccccc4c23)nc2cncc(C3CCC3)c12)[C@@H]1CCNC[C@@]1(C)O (racemic) [Example 77, (±)-(3,4-trans)-4-{[5-Cyclobutyl-2-(9H-pyrido[2,3-b]indol-4-yl)-pyrido[3,4-d]pyrimidin-4-yl]-methyl-amino}-3-methyl-piperidin-3-ol] | < 100
